{"source": "paper PMC2654083", "about": "(The Journal of General Physiology, 2009)", "biological_target": "KirBac1.1 (Burkholderia pseudomallei, UniProt P83698)", "sequence (P83698 1-333)": "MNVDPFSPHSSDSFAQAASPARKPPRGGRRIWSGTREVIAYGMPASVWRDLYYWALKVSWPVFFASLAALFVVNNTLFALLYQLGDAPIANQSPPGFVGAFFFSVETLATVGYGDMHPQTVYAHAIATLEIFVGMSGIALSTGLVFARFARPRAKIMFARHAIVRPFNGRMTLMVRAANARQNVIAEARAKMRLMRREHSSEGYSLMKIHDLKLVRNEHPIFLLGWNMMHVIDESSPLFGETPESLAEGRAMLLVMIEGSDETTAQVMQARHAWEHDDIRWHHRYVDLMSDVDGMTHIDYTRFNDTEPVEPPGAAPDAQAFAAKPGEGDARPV", "experiment": "biochemical", "data": [{"compound": "NCCCNCCCCNCCCN", "note": "[spermine]", "values": [{"measurement": "IC50", "value": 800, "unit": "µM"}]}]}
